Laboratory results taken from publication PMC12903857.

Assays:
[1] = target: T1, 14-3-3σ/C-RAF259 (Homo sapiens, UniProt P31947); experiment: Fluorescence anisotropy (FA) compound titration; assay type: binding; conditions: 10 nM C-RAF259-FAM 10-mer, 5 μΜ 14-3-3σ, overnight; read-out: Compound titrations EC50 value C-RAF259
Method: (§1) In analogy to our previous work, two orthogonal assays were used for screening (Figure S2). […] Dose responses of compounds were performed in the absence and presence of the C-RAF259 phospho-peptide to distinguish between neutral binders and cooperative molecular glues. The experiment was performed as a time course, with measurements every 8 h, after an 1 h incubation. Additionally, the compounds were tested in a fluorescence anisotropy (FA) assay in the presence of the 5-carboxyfluorescein-(FAM)-labeled C-RAF259 peptide. […] The full dose–response data for all compounds are available in the SI (Tables S2–S5, Figures S5–S8, Figures S15–S18, Figures S25–S32, Figures S37–S39). The dose–response data from both assays were also visually compared in the form of bar graphs. […] For FA experiments, the EC50 values from the overnight measurement were calculated and plotted as bar graphs showing the […] log EC50 value (pEC50). Compounds acting as MGs were expected to show increases in both types of bar graphs.
(§2) transferred in the assay plates.
(§3) The reacton mixtures were incubated
(§4) dispensed in the assay plates.
(§5) incubaton at room temperature .

[2] = target: T1, 14-3-3σ/C-RAF259; experiment: FA protein titration, C-RAF259 peptide; conditions: appKd DMSO / appKd compound
[3] = target: T2, 14-3-3σ (Homo sapiens, UniProt P31947); experiment: Intact mass spectrometry assay, apo (no peptide); assay type: binding; parameters: full-length for mass spectrometry and fluorescence anisotropy assays; made in house; host or cells: E. coli Rosetta 2(DE3)pLysS, pPROEX HTb vector; conditions: 1 μM compound, 100 nM 14-3-3σ
T2 sequence (P31947 1-248): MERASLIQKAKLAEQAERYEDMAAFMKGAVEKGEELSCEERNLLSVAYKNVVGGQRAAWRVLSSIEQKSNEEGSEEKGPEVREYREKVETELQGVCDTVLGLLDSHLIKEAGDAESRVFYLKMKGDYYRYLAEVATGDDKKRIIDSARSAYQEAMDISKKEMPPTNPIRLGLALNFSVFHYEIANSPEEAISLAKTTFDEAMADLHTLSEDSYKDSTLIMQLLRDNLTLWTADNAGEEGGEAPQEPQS
Method: as §1, §2, §3, §4, §5

[4] = target: T1, 14-3-3σ/C-RAF259; experiment: Intact mass spectrometry assay with C-RAF259 phospho-peptide; assay type: binding; parameters: full-length for mass spectrometry and fluorescence anisotropy assays; made in house; host or cells: E. coli Rosetta 2(DE3)pLysS (14-3-3σ); peptides from Elim Biopharmaceuticals; conditions: 1 μM compound, 100 nM 14-3-3σ, 18 µM peptide
Method: as §1, §2, §3, §4, §5

[5] = target: 14-3-3σ/C-RAF (Homo sapiens, UniProt P31947); experiment: cell-based
[6] = test system: pERK; experiment: Lumit immunoassay for pERK levels in HEK293T cells; assay type: cell-based; conditions: pERK modulation

Sequence of 14-3-3σ/C-RAF (P04049 whole entry partner, one chain of several): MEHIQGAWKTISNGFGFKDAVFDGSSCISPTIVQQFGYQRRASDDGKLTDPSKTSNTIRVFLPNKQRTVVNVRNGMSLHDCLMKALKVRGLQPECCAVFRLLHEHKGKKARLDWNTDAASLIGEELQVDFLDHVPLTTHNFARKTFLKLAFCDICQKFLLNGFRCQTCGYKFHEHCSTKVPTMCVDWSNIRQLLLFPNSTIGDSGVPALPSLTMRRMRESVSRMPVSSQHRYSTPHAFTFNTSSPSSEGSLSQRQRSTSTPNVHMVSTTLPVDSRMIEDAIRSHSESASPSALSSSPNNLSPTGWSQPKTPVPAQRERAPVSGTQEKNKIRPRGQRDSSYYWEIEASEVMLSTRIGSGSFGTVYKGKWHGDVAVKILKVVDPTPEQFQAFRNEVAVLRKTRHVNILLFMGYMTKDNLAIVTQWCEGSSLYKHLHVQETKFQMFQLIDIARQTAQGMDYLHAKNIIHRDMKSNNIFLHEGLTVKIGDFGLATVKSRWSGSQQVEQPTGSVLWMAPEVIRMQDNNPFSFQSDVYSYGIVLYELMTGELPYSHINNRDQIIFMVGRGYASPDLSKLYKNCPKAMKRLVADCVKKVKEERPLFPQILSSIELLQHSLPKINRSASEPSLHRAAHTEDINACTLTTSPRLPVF

O=C(CCl)NCC1CCN(S(=O)(=O)c2ccc(Br)cc2F)CC1 [Compound 36]
EC50 [1]: 25 ± 2 µM | Fold stabilization (100 µM compound), C-RAF259 (10mer) [2]: 18 fold | % bound, APO, 1h [3]: 0% | % bound, APO, 8h [3]: 0.9% | % bound, APO, 16h [3]: 2.9% | % bound, APO, 24h [3]: 4.5% | % bound, C-RAF259 (11mer), 1h [4]: 20.6% | % bound, C-RAF259 (11mer), 8h [4]: 41.1% | % bound, C-RAF259 (11mer), 16h [4]: 69.5% | % bound, C-RAF259 (11mer), 24h [4]: 91.7%

O=C(CCl)N1CCC2(CCN(S(=O)(=O)c3ccc(Br)c(F)c3)C2)C1 (stereo not shown) [Compound 86]
EC50 [1]: 1 ± 1 µM | EC50 [5]: 0.3 µM

O=C(CCl)NCC1CCN(S(=O)(=O)c2ccc(Cl)c(F)c2)CC1 [Compound 29]
EC50 [1]: 1 ± 0.5 µM | EC50 [5]: 0.14 µM

Cc1ccc(S(=O)(=O)N2CCC(CNC(=O)CCl)CC2)cc1 [Compound 24]
EC50 [1]: 14 ± 1 µM | Fold stabilization (100 µM compound), C-RAF259 (10mer) [2]: 21 fold | % bound, APO, 1h [3]: 0% | % bound, APO, 8h [3]: 0.5% | % bound, APO, 16h [3]: 0.5% | % bound, APO, 24h [3]: 1.5% | % bound, C-RAF259 (11mer), 1h [4]: 7.3% | % bound, C-RAF259 (11mer), 8h [4]: 13.7% | % bound, C-RAF259 (11mer), 16h [4]: 26.7% | % bound, C-RAF259 (11mer), 24h [4]: 51.8%

O=C(CCl)NCC1CCN(S(=O)(=O)c2ccc(F)cc2)CC1 [Compound 11]
EC50 [1]: 17 ± 3 µM | Fold stabilization (100 µM compound), C-RAF259 (10mer) [2]: 4 fold | % bound, APO, 1h [3]: 0% | % bound, APO, 8h [3]: 1.5% | % bound, APO, 16h [3]: 4.7% | % bound, APO, 24h [3]: 6.9% | % bound, C-RAF259 (11mer), 1h [4]: 6.9% | % bound, C-RAF259 (11mer), 8h [4]: 15% | % bound, C-RAF259 (11mer), 16h [4]: 26% | % bound, C-RAF259 (11mer), 24h [4]: 50.3%

CC1(CNC(=O)CCl)CCN(S(=O)(=O)c2ccc(Br)c(F)c2)CC1 [Compound 46]
EC50 [1]: 11 ± 1 µM | Fold stabilization (100 µM compound), C-RAF259 (10mer) [2]: 49 fold | % bound, APO, 1h [3]: 0.5% | % bound, APO, 8h [3]: 1.9% | % bound, APO, 16h [3]: 4.7% | % bound, APO, 24h [3]: 8.2% | % bound, C-RAF259 (11mer), 1h [4]: 25.8% | % bound, C-RAF259 (11mer), 8h [4]: 39.4% | % bound, C-RAF259 (11mer), 16h [4]: 49% | % bound, C-RAF259 (11mer), 24h [4]: 84%

CNc1ncc2cc(-c3cc(NC(=O)NCCC(C)(C)C)c(F)cc3C)c(C)nc2n1 [LY3009120, reference compound]
time taken to modulate the pathway [6]: 3 h

COc1ccc(S(=O)(=O)N2CCC(CNC(=O)CCl)CC2)cc1F [Compound 33]
EC50 [1]: 9 ± 1 µM | Fold stabilization (100 µM compound), C-RAF259 (10mer) [2]: 13 fold | % bound, APO, 1h [3]: 0% | % bound, APO, 8h [3]: 0% | % bound, APO, 16h [3]: 0.9% | % bound, APO, 24h [3]: 0.9% | % bound, C-RAF259 (11mer), 1h [4]: 7.7% | % bound, C-RAF259 (11mer), 8h [4]: 18.5% | % bound, C-RAF259 (11mer), 16h [4]: 31.8% | % bound, C-RAF259 (11mer), 24h [4]: 50.3%

O=C(CCl)NCC1CCN(S(=O)(=O)c2ccc(C(F)(F)F)cc2)CC1 [Compound 18]
EC50 [1]: 17 ± 1 µM | Fold stabilization (100 µM compound), C-RAF259 (10mer) [2]: 15 fold | % bound, APO, 1h [3]: 0% | % bound, APO, 8h [3]: 0.9% | % bound, APO, 16h [3]: 6.5% | % bound, APO, 24h [3]: 12.7% | % bound, C-RAF259 (11mer), 1h [4]: 8.2% | % bound, C-RAF259 (11mer), 8h [4]: 17.9% | % bound, C-RAF259 (11mer), 16h [4]: 28.4% | % bound, C-RAF259 (11mer), 24h [4]: 46.8%

O=C(CCl)N1CC2(CC(NS(=O)(=O)c3ccc(Br)c(F)c3)C2)C1 [Compound 64]
EC50 [1]: 15 ± 2 µM | Fold stabilization (100 µM compound), C-RAF259 (10mer) [2]: 2 fold | % bound, APO, 1h [3]: 9.9% | % bound, APO, 8h [3]: 27.2% | % bound, APO, 16h [3]: 47.2% | % bound, APO, 24h [3]: 65% | % bound, C-RAF259 (11mer), 1h [4]: 27.5% | % bound, C-RAF259 (11mer), 8h [4]: 53.6% | % bound, C-RAF259 (11mer), 16h [4]: 79% | % bound, C-RAF259 (11mer), 24h [4]: 80.8%

O=C(CCl)NCC1CCN(S(=O)(=O)c2ccc(Br)c(F)c2F)CC1 [Compound 38]
EC50 [1]: 2 ± 1 µM | Fold stabilization (100 µM compound), C-RAF259 (10mer) [2]: 39 fold | % bound, APO, 1h [3]: 0% | % bound, APO, 8h [3]: 0.9% | % bound, APO, 16h [3]: 2.9% | % bound, APO, 24h [3]: 4.4% | % bound, C-RAF259 (11mer), 1h [4]: 28% | % bound, C-RAF259 (11mer), 8h [4]: 43.9% | % bound, C-RAF259 (11mer), 16h [4]: 61.9% | % bound, C-RAF259 (11mer), 24h [4]: 83.3%

O=C(CCl)NCC1CCN(S(=O)(=O)c2cc(F)c(Br)c(F)c2)CC1 [Compound 40]
EC50 [1]: 2 ± 1 µM | Fold stabilization (100 µM compound), C-RAF259 (10mer) [2]: 13 fold | % bound, APO, 1h [3]: 0% | % bound, APO, 8h [3]: 0.5% | % bound, APO, 16h [3]: 1.5% | % bound, APO, 24h [3]: 4.7% | % bound, C-RAF259 (11mer), 1h [4]: 35.9% | % bound, C-RAF259 (11mer), 8h [4]: 60.5% | % bound, C-RAF259 (11mer), 16h [4]: 78.9% | % bound, C-RAF259 (11mer), 24h [4]: 93.9%

O=C(CCl)NCC1CCN(S(=O)(=O)c2cc(F)c(Br)cc2F)CC1 [Compound 39]
EC50 [1]: 17 ± 3 µM | Fold stabilization (100 µM compound), C-RAF259 (10mer) [2]: 7 fold | % bound, APO, 1h [3]: 0% | % bound, APO, 8h [3]: 1.9% | % bound, APO, 16h [3]: 3.8% | % bound, APO, 24h [3]: 3.8% | % bound, C-RAF259 (11mer), 1h [4]: 39.3% | % bound, C-RAF259 (11mer), 8h [4]: 64.6% | % bound, C-RAF259 (11mer), 16h [4]: 78.1% | % bound, C-RAF259 (11mer), 24h [4]: 96.7%

O=C(CCl)NCC1CCN(S(=O)(=O)c2ccc(OC(F)(F)F)cc2)CC1 [Compound 19]
EC50 [1]: 13 ± 3 µM | Fold stabilization (100 µM compound), C-RAF259 (10mer) [2]: 14 fold | % bound, APO, 1h [3]: 0% | % bound, APO, 8h [3]: 0.5% | % bound, APO, 16h [3]: 2.5% | % bound, APO, 24h [3]: 6.5% | % bound, C-RAF259 (11mer), 1h [4]: 20.5% | % bound, C-RAF259 (11mer), 8h [4]: 41.3% | % bound, C-RAF259 (11mer), 16h [4]: 69.5% | % bound, C-RAF259 (11mer), 24h [4]: 91.3%

O=C(CCl)NCC1CCN(S(=O)(=O)c2ccc(Cl)c(C(F)(F)F)c2)CC1 [Compound 31]
EC50 [1]: 8 ± 1 µM | Fold stabilization (100 µM compound), C-RAF259 (10mer) [2]: 2 fold | % bound, APO, 1h [3]: 0.9% | % bound, APO, 8h [3]: 1.9% | % bound, APO, 16h [3]: 2.5% | % bound, APO, 24h [3]: 3.8% | % bound, C-RAF259 (11mer), 8h [4]: 38.1% | % bound, C-RAF259 (11mer), 16h [4]: 59.1% | % bound, C-RAF259 (11mer), 24h [4]: 81.4%
